Like-named read-outs stand apart in the source and are kept apart here.
Key:
Format in all cases: cell-based
SKBR3 = assay: Cell viability (CellTiter-Blue, 72 h), SKBR3 breast cancer cells; conditions: for IC50: Homo sapiens; for effect (but only 50% effect): extent of effect reached
Method: (§1) The cell lines tested in this Example were as follows. Breast cancer: MDA-MB-231; SK-BR3; and BT474. Liver cancer: HepG2.
(§2) The phytocannabinoids were tested alone and in various ratioed combinations in media containing final concentrations of 10% and 1% foetal bovine serum at 72 h for the breast and prostate cancer lines and 1% foetal bovine serum for the liver cancer line HepG2.
(§3) Each tumour cell line was maintained in vitro in RPMI 1640+10% heat inactivated FBS and 2 mM L-glutamine (growth media) at 37° C. in 5% CO2 and humidified conditions. The cells were harvested, washed, re-suspended into growth medium and counted. The cells were re-suspended into assay media (RPMI 1640+5% heat inactivated FBS+ and 2 mM L-glutamine) at 8×104-2×10^5 cells/ml (dependent upon cell type) and plated into the middle 240 wells of 384 well tissue culture plates (Corning CellBind, black-wall plates) 12.5 μl/well aliquots; 62.5 μl of growth media was aliquoted into the outer wells. There were 4 plates for each cell line. The plates were incubated overnight at 37° C., in 5% humidified CO2.
(§4) The phytocannabinoid test compounds were prepared in 100% DMSO vehicle at a stock concentration of 10 mM.
(§5) Starting with the 10 mM stock, the compounds were diluted to 125 μM in FBS-free growth media.
(§6) These were diluted in FBS-free growth media to 125 μM before serial dilution.
(§7) 5 volumes of CBD 10 mM stock was added to 1 volume of the other agent (also at 10 mM) and 4 volumes of DMSO. This made a final concentration of 5 mM:1 mM. This was then diluted in FBS-free growth media so the top concentration of CBD would be 125 μM (before serial dilution). Each compound and compound combination stock was serially diluted in FBS-free growth media (containing 1.25% v/v DMSO) from 125 μM to 41.7, 13.89, 4.63, 1.54, 0.514, 0.171, 0.057 and 0.019 μM (1.25× final assay concentrations). Vehicle was prepared at equivalent dilutions in assay media. The top final concentration of compound in the assay was always 100 μM so CBD5:1CBG was 100 μM CBD and 20 μM CBG.
Taxotere SOC was prepared at a stock concentration of 1 mM in 100% DMSO. Taxotere was serially diluted from the stock solution into FBS-free growth media to 12.5 μM, then serially diluted in FBS-free growth media containing 1.25% DMSO to 4.17, 1.39, 0.46, 0.154, 0.051, 0.017, 0.006, 0.002 μM (1.25× final assay concentrations).
This was then serially diluted in FBS-free growth media to 0.417, 0.139, 0.046, 0.0154, 0.0051, 0.0017, 0.0006, 0.0002 μM (1.25× final assay concentrations). This was plated as a positive control for the SKBR3 & BT474 cell lines. 50 μl per well of compound/vehicle dilutions was added to the plates in replicates of 6. Where applicable total volume in the well was made up to 62.5 μl with assay media.
(§8) The plates were incubated for 72 h at 37° C. in 5% humidified CO2. To develop the plates, at 72 h, 10 μl of CellTiter-Blue™ reagent was added to each test/blank well. The plates were incubated at 37° C., 5% humidified CO2. Fluorescence was measured using a Flex II Station plate reader (570 nm excitation wavelength, 600 nm emission wavelength, 590 nm cut-off) after 3 h.
The experimental conditions were the same as the experiment above, with the same compound dilutions and volumes for plating but using growth media containing 10% FBS rather than FBS-free media.
(§9) The raw data values expressed in relative fluorescent units were normalised to the vehicle for each individual plate and any reduction in fluorescence indicated a decrease in viability.
(§10) The data were analysed in GraphPad PRISM using a non-linear sigmoidal plot with variable slope (asymmetric five point linear regression) and where possible an IC50 value for each single compound and combination was generated.
For the calculation, raw data values expressed in relative fluorescent units were normalised to the vehicle for each individual plate (set as 0%) and the reduction in fluorescence calculated as an increase in inhibition of viability.

HepG2 = assay: Cell viability (CellTiter-Blue, 72 h), HepG2 liver cancer cells; conditions: Homo sapiens, HepG2, 72 h, read-out: IC50 values
Method: as §1, §2, §3, §4, §5, §6, §7, §8, §9, §10

[1] = system: LNCAP cells compared to DU145 cells; assay: Cell viability, prostate cancer lines LNCAP and DU145 (potency comparison); conditions: media containing 10% FBS
Method: as §2

[2] = SK-BR-3, 72 h, read-out: IC50 values, SKBR3, 1% FBS, 72 h
[3] = SK-BR-3, 72 h, read-out: IC50 values, SKBR3, 10% FBS, 72 h
[4] = SK-BR-3, read-out: Dm (median effect dose), SKBR3, 1% FBS, Calcusyn median-effect analysis

With `CC(=O)O[C@@]12CO[C@@H]1C[C@H](O)[C@@]1(C)C(=O)[C@H](O)C3=C(C)[C@@H](OC(=O)[C@H](O)[C@@H](NC(=O)OC(C)(C)C)c4ccccc4)C[C@@](O)([C@@H](OC(=O)c4ccccc4)[C@H]21)C3(C)C` [Taxotere, Docetaxel, reference compound] the IC50 (SKBR3; [2]) was less than 0.001 µM, the IC50 (SKBR3; [3]) was less than 0.001 µM and the “effect (but only 50% effect)” value (SKBR3; SKBR3, 1% FBS) was “only 50%”. The “effect (but only 50% effect)” value (SKBR3; SKBR3, 10% FBS) was 50% effect).
With `CCCc1cc(O)c2c(c1)OC(C)(C)[C@@H]1CCC(C)=C[C@@H]21` [THCV, Tetrahydrocannabivarin] the IC50 (HepG2) was 7.2 µM, the “fold more potent in LNCAP cells compared to DU145 cells” value [1] was 5 fold and the IC50 (SKBR3; [2]) was 10.8 µM. The IC50 (SKBR3; [3]) was 30 µM and the IC50 (SKBR3; [4]) was 18.3 µM.
`CCCCCc1cc(O)c(C/C=C(\C)CCC=C(C)C)c(O)c1C(=O)O` [CBGA, Cannabigerolic acid] gave an IC50 (HepG2) of 9.3 µM, an IC50 (SKBR3; [2]) of 10.6 µM and an IC50 (SKBR3; [3]) greater than 100 µM. It also gave an IC50 (SKBR3; [4]) of 16.8 µM.
`C=C(C)[C@@H]1CCC(C)=C[C@H]1c1c(O)cc(CCCCC)c(C(=O)O)c1O` [CBDA, Cannabidiolic acid] was tested, and the IC50 (HepG2) was 7.4 µM, the IC50 (SKBR3; [2]) was 14.5 µM and the IC50 (SKBR3; [3]) was roughly 100 µM. It also gave an IC50 (SKBR3; [4]) of 30 µM.
`C=C(C)[C@@H]1CCC(C)=C[C@H]1c1c(O)cc(CCCCC)cc1O` [CBD, Cannabidiol] was tested, and the IC50 (HepG2) was 3.3 µM, the IC50 (SKBR3; [2]) was 4 µM and the IC50 (SKBR3; [3]) was 23 µM. For the same compound, the IC50 (SKBR3; [4]) was 9.31 µM.
`CCCCCc1cc(O)c(C/C=C(\C)CCC=C(C)C)c(O)c1` [CBG, Cannabigerol] was tested, and the IC50 (HepG2) was 3.7 µM, the IC50 (SKBR3; [2]) was 4 µM and the IC50 (SKBR3; [3]) was 33 µM. The IC50 (SKBR3; [4]) was 8.55 µM.

— patent publication US9962341B2, “Active pharmaceutical ingredient (API) comprising cannabinoids for use in the treatment of cancer” (GW Pharma Limited, priority 2014, dated 2018)
